{"source": "patent US20030113815A1", "about": "“Canine peroxisome proliferator activated receptor gamma” (Pfizer Inc., priority 2001, published 2003)", "tested_on": "TNF-α expression in canine DH82 cells", "experiment": "Effect of PPARγ agonist on TNF-α mRNA levels (Q-PCR) in canine DH82 cells", "format": "cell-based", "details": "two hours, normalized to GAPDH", "description": "Canine DH82 cells (ATCC No. CRL-10389) were cultured in RPMI 1640 medium containing 2 mM L-glutamine, 25 mM Hepes, 10% fetal bovine serum (FBS) and 1× antimycotic at 37° C., 95% humidity, and 5% CO2. Cells were treated with 10 nM PMA (Sigma-Aldrich, St. Louis, Mo.), PMA (10 nM) plus darglitazone (10 uM), and darglitazone (10 μM), respectively for two hours. After treatment, cell RNA lysis buffer was added to the cells. Samples were loaded into MagNa Pure™ machine (F. Hoffmann-La Roche, Basel, Switzerland). MagNa Pure LC™ RNA isolation Kit II (F. Hoffmann-La Roche) was used for isolation of total RNA from culture cells. First strand cDNA synthesis kit for RT-PCR (F. Hoffmann-La Roche) was used to synthesize cDNA. Samples were incubated at 25° C. for 10 minutes and then at 42° C. for 60 minutes, denatured at 90° C. for 5 minutes and cooled to 4° C. for 1-2 hr or at −20° C. for longer periods. Quantification PCR (Q-PCR) was performed using the Lightcycler Faster DNA Master SYBR Green 1™ kit (F. Hoffmann-La Roche) using canine TNF-α primers (forward primer: 5′ […], reverse primer: 5′ […]). […] For quantification, melting points were measured every 0.2° C. from 60° C. to 99° C. using fluorescence detection. […]"}
{"compound": "Cc1oc(-c2ccccc2)nc1CCC(=O)c1ccc(CC2SC(=O)NC2=O)cc1", "note": "(centres unmarked) [darglitazone]", "values": [{"measurement": "reduction of TNF-α expression in PMA stimulated cells", "setting": "PMA 10 nM plus darglitazone 10 uM, FIG. 2B", "value": "about 15%"}, {"measurement": "reduction of TNF-α expression from the basal level", "setting": "unstimulated, darglitazone 10 μM, control basal level = 100%, FIG. 2A", "value": "about 40%"}]}
